Experimental data reported in patent publication US20200206233A1 (INTEGRAL BIOSCIENCES PRIVATE LIMITED, priority 2018, published 2020).
pIC50: −log10 of the molar value.

Columns and labels:
Assay type in all cases: biochemical
IDH2 mutant (R140Q) = molecular target: T1, IDH2 mutant (R140Q) (Homo sapiens, UniProt P48735, R140Q); test: Mutant IDH2-R140Q Fluorescence Assay (Resazurin based); conditions: 5 nM IDH2 R140Q, 4 hr pre-incubation, 1 mM α-ketoglutarate, 5 μM NADPH, 2 h
T1 construct: purchased BPS Bioscience 71100-2
T1 sequence (P48735 40-452 R140Q): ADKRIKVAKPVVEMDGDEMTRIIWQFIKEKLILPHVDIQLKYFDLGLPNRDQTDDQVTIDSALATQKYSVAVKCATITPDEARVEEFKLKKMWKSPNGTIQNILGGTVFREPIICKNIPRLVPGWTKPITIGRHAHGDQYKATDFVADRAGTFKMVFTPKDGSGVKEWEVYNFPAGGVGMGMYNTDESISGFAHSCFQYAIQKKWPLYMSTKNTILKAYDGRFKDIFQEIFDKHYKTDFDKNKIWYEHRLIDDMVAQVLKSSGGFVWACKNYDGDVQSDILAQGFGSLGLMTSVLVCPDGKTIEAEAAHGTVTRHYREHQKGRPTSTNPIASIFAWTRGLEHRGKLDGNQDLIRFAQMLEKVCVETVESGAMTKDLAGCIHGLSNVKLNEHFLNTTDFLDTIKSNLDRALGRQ
Protocol: IC50 values of compounds against IDH2 mutant (R140Q) were determined by Resazurin based Fluorescence assay. Assay was performed in Buffer (25 mM Tris HCl, 150 mM NaCl, 10 mM MgCl2, 0.03% BSA, 2 mM 1-mercaptoethanol) where total reaction volume was 12.5 μL in low-volume 384-well plates (Cat #4511, Corning). Serially diluted compounds (3-fold) were pre-incubated with IDH2 R140Q mutant enzyme (5 nM; Cat #71100-2, BPS Bioscience) for 4 hr at RT (25° C.) followed by addition of cocktail of α-ketoglutarate (1 mM; Cat #75892-25G, Sigma), and NADPH (5 μM; Cat # N1630-100MG, Sigma) with buffer in dark at room temperature for 2 h. After 2 h incubation, 6.25 μL detection solution containing Resazurin (30 μM; (Cat #62758-13-8, Sigma) and Diaphorase (40 ug/ml; Cat # D2197-300UN, Sigma) in buffer was added and incubated for 15 min. Readings were taken in a Synergy Neo Plate reader (BioTek, Winooski) at single excitation of 540 nm and emission at 590 nm respectively.
The % activity of test samples was calculated as (Sample−Min)×100/(Max−Min). [Max: DMSO control, complete reaction with enzyme with DMSO and Min: No enzyme with DMSO]. Percent inhibition (100−% activity) was fitted to the “four-parameter logistic model” in XLfit for determination of IC50 values.

IDH1 mutant (R132H) = molecular target: T2, IDH1 mutant (R132H) (Homo sapiens, UniProt O75874, R132H); test: Mutant IDH1-R132H Fluorescence Assay (Resazurin based); conditions: 10 nM IDH1 R132H, 4 mM α-ketoglutarate, NADPH, 1.5 h at room temperature
T2 construct: purchased BPS Bioscience 71099-2
T2 sequence (O75874 whole entry R132H): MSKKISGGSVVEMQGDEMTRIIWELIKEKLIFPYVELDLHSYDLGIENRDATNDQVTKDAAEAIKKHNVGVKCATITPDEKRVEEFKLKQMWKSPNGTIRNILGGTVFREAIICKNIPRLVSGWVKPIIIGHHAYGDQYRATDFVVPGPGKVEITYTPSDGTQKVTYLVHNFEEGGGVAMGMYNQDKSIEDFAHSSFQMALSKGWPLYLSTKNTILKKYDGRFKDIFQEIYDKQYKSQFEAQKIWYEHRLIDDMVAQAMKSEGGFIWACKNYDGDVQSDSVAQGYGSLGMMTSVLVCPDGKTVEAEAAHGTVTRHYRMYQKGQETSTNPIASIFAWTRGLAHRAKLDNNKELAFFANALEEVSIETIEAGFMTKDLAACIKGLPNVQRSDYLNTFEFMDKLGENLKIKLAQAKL
Protocol: IC50 values of compounds against IDH1 mutant (R132H) was determined by Resazurin based Fluorescence assay. Assays were performed in Buffer (25 mM Tris HCl, 150 mM NaCl, 10 mM MgCl2, 0.03% BSA, 2 mM 1-mercaptoethanol) where total reaction volume was 12.5 μL in low-volume 384-well plates (Cat #4511, Corning). Serially diluted compounds (3-fold) were incubated with cocktail of α-ketoglutarate (4 mM; Cat #75892-25G, Sigma), NADPH ([…]; Cat # N1630-100MG, Sigma) and buffer for 5 min, following IDH1 R132H mutant (10 nM; Cat #71099-2, BPS Bioscience) was added and incubated in dark at room temperature for 1.5 h. After 1.5 h, 6.25 μL detection solution containing Resazurin ([…]; (Cat #62758-13-8, Sigma) and Diaphorase (40 ug/ml; Cat # D2197-300UN, Sigma) in buffer was added and incubated for 15 min. Readings were taken in a Synergy Neo Plate reader (BioTek, Winooski) at single excitation of 540 nm and emission at 590 nm respectively.
(§1) The % (percent) activity of test samples was calculated as (Sample−Min)×100/(Max−Min). [Max: DMSO control, complete reaction with enzyme with DMSO and Min: No enzyme with DMSO]. Percent inhibition (100−% activity) was fitted to the “four-parameter logistic model” in XLfit for determination of IC50 values.

IDH1-WT = molecular target: T3, IDH1-WT (Homo sapiens, UniProt O75874); test: IDH1-WT Fluorescence Assay (Resazurin based); conditions: 1 nM IDH1-WT, 200 μM isocitrate, 15 μM NADP+, 30 min at room temperature
T3 construct: purchased BPS Bioscience 71075-2
T3 sequence (O75874 whole entry): as the sequence (O75874 whole entry R132H) above, with H132R counted along it
Protocol: IC50 values of compounds against IDH1-WT was determined by Resazurin based Fluorescence assay. Assays were performed in Buffer (50 mM Tris HCl, 10 mM MgCl2, 0.03% BSA, 2 mM ß-mercaptoethanol) where total reaction volume was 25 μL in low-volume 96-well plates. Serially diluted compounds (3-fold) in DMSO (0.5% in final reaction) were incubated with cocktail of isocitrate (200 μM; Cat # I1252-1G, Sigma), NADP^+ (15 μM; Cat # N0505-500MG, Sigma) and buffer for 5 min, following addition of IDH1-WT enzyme (1 nM; Cat #71075-2, BPS Bioscience) and incubated in dark at room temperature for 30 min. After that, 12.5 μL detection solution containing Resazurin (60 μM; Cat #62758-13-8, Sigma) and Diaphorase (40 μg/ml; Cat # D2197-300UN, Sigma) in buffer was added and incubated for 15 min. Readings were taken using a Synergy Neo Plate reader (BioTek, Winooski) at single excitation of 540 nm and emission at 590 nm respectively.
as §1

| pIC50 (IDH2 mutant (R140Q)) | pIC50 (IDH1 mutant (R132H)) | pIC50 (IDH1-WT) | SMILES |
| --- | --- | --- | --- |
| < 4.30 | 6.44 | < 4.30 | CC(C)[C@H]1COC(=O)N1c1ncnc(N[C@@H](C)c2cc3cc(Cl)ccc3[nH]c2=O)n1 [Compound 1.23, (S)-3-(4-((S)-1-(6-chloro-2-oxo-1,2-dihydroquinolin-3-yl)ethylamino)-1,3,5-triazin-2-yl)-4-isopropyloxazolidin-2-one] |
| < 4.30 | 6.48 | < 4.30 | CC[C@H]1COC(=O)N1c1nc(C)nc(N[C@@H](C)c2cc3cc(Br)ccc3[nH]c2=O)n1 [Compound 1.66, (S)-3-(4-((S)-1-(6-bromo-2-oxo-1,2-dihydroquinolin-3-yl)ethylamino)-6-methyl-1,3,5-triazin-2-yl)-4-ethyloxazolidin-2-one] |
| < 4.30 | 6.13 | < 4.30 | CC[C@H]1COC(=O)N1c1nc(C)nc(N[C@@H](C)c2ccc(Sc3ccc(F)cc3)cc2)n1 [Compound 1.92, (S)-4-ethyl-3-(4-((S)-1-(4-(4-fluorophenylthio)phenyl)ethylamino)-6-methyl-1,3,5-triazin-2-yl)oxazolidin-2-one] |
| < 4.30 | 6.31 | < 4.30 | CC[C@H]1COC(=O)N1c1ncnc(N[C@@H](C)c2ccc(Oc3ccccc3)cc2)n1 [Compound 1.29, (S)-4-ethyl-3-(4-((S)-1-(4-phenoxyphenyl)ethylamino)-1,3,5-triazin-2-yl)oxazolidin-2-one] |
| < 4.30 | 6.36 | < 4.30 | CC[C@H]1COC(=O)N1c1nc(C)nc(N[C@@H](C)c2ccc(Oc3ccc(F)cc3Br)cc2)n1 [Compound 1.78, (S)-3-(4-((S)-1-(4-(2-bromo-4-fluorophenoxy)phenyl)ethylamino)-6-methyl-1,3,5-triazin-2-yl)-4-ethyloxazolidin-2-one] |
| < 4.30 | 5.52 | < 4.30 | C[C@H](Nc1ncnc(N2C(=O)OC[C@@H]2c2ccccc2)n1)c1cn(-c2ccc(C(F)(F)F)cc2)cn1 [Compound 1.26, (S)-4-phenyl-3-(4-((S)-1-(1-(4-(trifluoromethyl)phenyl)-1H-imidazol-4-yl)ethylamino)-1,3,5-triazin-2-yl)oxazolidin-2-one] |
|  | < 4.52 |  | CC[C@H]1COC(=O)N1c1nc(C)nc(N[C@H](C)c2ccc(Sc3ccc(F)cc3)cc2)n1 [Compound 1.91, (S)-4-ethyl-3-(4-((R)-1-(4-(4-fluorophenylthio)phenyl)ethylamino)-6-methyl-1,3,5-triazin-2-yl)oxazolidin-2-one] |
|  | < 4.52 |  | CC[C@H]1COC(=O)N1c1nc(C)nc(N[C@H](C)c2cnc3ccc(Cl)nn23)n1 [Compound 1.70, (S)-3-(4-((R)-1-(6-chloroimidazo[1,2-b]pyridazin-3-yl)ethylamino)-6-methyl-1,3,5-triazin-2-yl)-4-ethyloxazolidin-2-one] |
|  | < 4.52 |  | CC(C)[C@H]1COC(=O)N1c1ncnc(N[C@@H](C)c2ccc(N3CCN(C)CC3)cn2)n1 [Compound 1.24, (S)-4-isopropyl-3-(4-((S)-1-(5-(4-methylpiperazin-1-yl)pyridin-2-yl)ethylamino)-1,3,5-triazin-2-yl)oxazolidin-2-one] |
|  | 4.91 |  | CC[C@H]1COC(=O)N1c1nc(C)nc(N[C@H](C)c2cc3cc(Br)ccc3[nH]c2=O)n1 [Compound 1.67, (S)-3-(4-((R)-1-(6-bromo-2-oxo-1,2-dihydroquinolin-3-yl)ethylamino)-6-methyl-1,3,5-triazin-2-yl)-4-ethyloxazolidin-2-one] |
|  | < 4.64 |  | CC[C@H]1COC(=O)N1c1nc(C)nc(NC(C)c2cn(-c3ccc(Cl)cc3)cn2)n1 (single isomer, unassigned) [Compound 1.51] |

Continued, compound first:

| SMILES | pIC50 (IDH2 mutant (R140Q)) | pIC50 (IDH1 mutant (R132H)) | pIC50 (IDH1-WT) |
| --- | --- | --- | --- |
| CC(C)[C@H]1COC(=O)N1c1ncnc(N[C@@H](C)c2cn(-c3ccc(C(F)(F)F)cc3)cn2)n1 [Compound 1.5, (S)-4-isopropyl-3-(4-((S)-1-(1-(4-(trifluoromethyl)phenyl)-1H-imidazol-4-yl)ethylamino)-1,3,5-triazin-2-yl)oxazolidin-2-one] | < 4.30 | 6.24 | < 4.52 |
| Cc1cc(-c2ccc([C@H](C)Nc3ncnc(N4C(=O)OC[C@@H]4C(C)C)n3)nc2)ccc1F [Compound 1.3, (S)-3-(4-((S)-1-(5-(4-fluoro-3-methylphenyl)pyridin-2-yl)ethylamino)-1,3,5-triazin-2-yl)-4-isopropyloxazolidin-2-one] | < 4.52 | 6.08 | < 4.52 |
| Cc1cc(-c2cnc([C@@H](C)Nc3ncnc(N4C(=O)OC[C@@H]4C(C)C)n3)nc2)ccc1F [Compound 1.2, (4S)-3-(4-{[(1R)-1-[5-(4-fluoro-3-methylphenyl)pyrimidin-2-yl]ethyl]amino}-1,3,5-triazin-2-yl)-4-(propan-2-yl)-1,3-oxazolidin-2-one] |  | < 4.30 | < 4.30 |
| CC(C)[C@H]1COC(=O)N1c1ncnc(N[C@@H](C)c2ccc(-c3ccc(F)cc3)cn2)n1 [Compound 1.12, (S)-3-(4-((S)-1-(5-(4-fluorophenyl)pyridin-2-yl)ethylamino)-1,3,5-triazin-2-yl)-4-isopropyloxazolidin-2-one] | < 4.30 | 5.05 |  |
| CC(C)[C@H]1COC(=O)N1c1ncnc(N[C@@H](C)c2ccc(-c3ccnc(C(F)(F)F)c3)cn2)n1 [Compound 1.11, (S)-4-isopropyl-3-(4-((S)-1-(2′-(trifluoromethyl)-3,4′-bipyridin-6-yl)ethylamino)-1,3,5-triazin-2-yl)oxazolidin-2-one] | < 4.30 | 4.94 |  |
| CC(C)[C@H]1COC(=O)N1c1ncnc(N[C@H](C)c2cn(-c3ccc(Cl)cc3)cn2)n1 [Compound 1.14, (S)-3-(4-((R)-1-(1-(4-chlorophenyl)-1H-imidazol-4-yl)ethylamino)-1,3,5-triazin-2-yl)-4-isopropyloxazolidin-2-one] |  | 4.61 |  |
| CC(C)[C@H]1COC(=O)N1c1ncnc(N[C@H](C)c2ccc(Cl)c(Cl)c2)n1 [Compound 1.6, (S)-3-(4-((R)-1-(3,4-dichlorophenyl)ethylamino)-1,3,5-triazin-2-yl)-4-isopropyloxazolidin-2-one] |  | < 4.52 | < 4.52 |
